The results in this text go back to patent US7419780B2, “Methods and assays for screening protein targets” (The Trustees of Columbia University in the City of New York, priority 2000, dated 2008).

Common to all, as to format: cell-based, S. cerevisiae
What all share (conditions): 1 uM small molecule, difference to activity without small molecule, average of two trials

Assay [1] concerns the target T1, LexA (GSG)2eDHFR / B42 (GSG)rGR2 (UniProt P06536+P0ABQ4, C656G/F620S).
T1 construct: rat Glucocorticoid Receptor (aa 524-795) with point mutations; expressed in transfected cells; host or cells: S. cerevisiae FY250
T1 sequence (P0ABQ4 1-159): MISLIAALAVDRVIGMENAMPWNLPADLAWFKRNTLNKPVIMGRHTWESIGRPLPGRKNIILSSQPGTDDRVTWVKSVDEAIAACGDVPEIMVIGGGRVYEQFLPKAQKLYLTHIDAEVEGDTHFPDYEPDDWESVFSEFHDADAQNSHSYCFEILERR
T1 sequence (P06536 524-795 F620S/C656G limits assumed): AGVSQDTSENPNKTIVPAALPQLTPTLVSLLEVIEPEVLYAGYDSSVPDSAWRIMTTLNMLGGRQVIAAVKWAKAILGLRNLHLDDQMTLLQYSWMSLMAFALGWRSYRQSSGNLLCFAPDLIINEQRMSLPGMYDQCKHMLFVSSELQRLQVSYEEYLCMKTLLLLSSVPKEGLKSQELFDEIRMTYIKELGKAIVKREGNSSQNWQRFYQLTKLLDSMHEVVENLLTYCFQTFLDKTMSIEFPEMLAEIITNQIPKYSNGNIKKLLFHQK
Kind of assay: β-galactosidase activity assay, strain V501Y. The source says:
(§1) Table III explains the components of each strain. Each strain was constructed from the parent yeast strain FY250 and also contains the pMW106 plasmid, which has the LacZ reporter gene that is turned on only in when the LexA DNA binding domain and the B42 activation are brought in tot he vicinity of each other. We use several different strains because we use DHFR from two different species, mDHFR is from murine, while eDHFR is from E. coli. We are asl oable to switch the small moleculebinding domains. For example, the strain containing LexA-eDHFR with B42-rGH2 is a different strain and behaves differently from the strain containing LexA-rGR2 with B42-eDHFR. We also put in short 6 amino acid linkers between the two domains of our protein chimeras and thus these are different strain as well.
(§2) The results in Table IV are averages of two separate trials. Each strain was examined with small molecules and without small molecules. The absolute activity is given as the β-galactisidase activity […]. The average β-galactosidse activity for a strain without small molecule (i.e. the negative control) was about 100 β-galactosidase units.

For the next assay, the target named is T2, LexA rGR2 / B42 mDHFR (UniProt P00375+P06536, C656G/F620S).
T2 construct: rat Glucocorticoid Receptor (aa 524-795) with point mutations; expressed in transfected cells; host or cells: S. cerevisiae FY250
T2 sequence (P06536 524-795 F620S/C656G limits assumed): T1 sequence (P06536 524-795 F620S/C656G limits assumed)
T2 sequence (P00375 1-187): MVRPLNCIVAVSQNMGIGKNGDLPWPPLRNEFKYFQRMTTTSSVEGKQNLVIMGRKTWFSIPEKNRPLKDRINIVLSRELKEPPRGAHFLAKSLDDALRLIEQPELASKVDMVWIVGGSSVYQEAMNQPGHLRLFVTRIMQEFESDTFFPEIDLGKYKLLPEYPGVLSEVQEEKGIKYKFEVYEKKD
Kind of assay: β-galactosidase activity assay, strain V507Y.
Source text: as §1, §2

For assay [2], the target named is T3, LexA (GSG)2rGR2 / B42 (GSG)2mDHFR (UniProt P00375+P06536, C656G/F620S).
T3 construct: rat Glucocorticoid Receptor (aa 524-795) with point mutations; expressed in transfected cells; host or cells: S. cerevisiae FY250
T3 sequence (P06536 524-795 F620S/C656G limits assumed): T1 sequence (P06536 524-795 F620S/C656G limits assumed)
T3 sequence (P00375 1-187): T2 sequence (P00375 1-187)
Kind of assay: β-galactosidase activity assay, strain V512Y.
Source text: as §1, §2

Assay [3] concerns the target T4, LexA (GSG)2mDHFR / B42 (GSG)rGR2 (UniProt P00375+P06536, C656G/F620S).
T4 construct: rat Glucocorticoid Receptor (aa 524-795) with point mutations; expressed in transfected cells; host or cells: S. cerevisiae FY250
T4 sequence (P00375 1-187): T2 sequence (P00375 1-187)
T4 sequence (P06536 524-795 F620S/C656G limits assumed): T1 sequence (P06536 524-795 F620S/C656G limits assumed)
The assay is described as follows: β-galactosidase activity assay, strain V504Y.
Source text: as §1, §2

For another assay, the target named is T5, LexA mDHFR / B42 rGR2 (UniProt P00375+P06536, C656G/F620S).
T5 construct: rat Glucocorticoid Receptor (aa 524-795) with point mutations; expressed in transfected cells; host or cells: S. cerevisiae FY250
T5 sequence (P00375 1-187): T2 sequence (P00375 1-187)
T5 sequence (P06536 524-795 F620S/C656G limits assumed): T1 sequence (P06536 524-795 F620S/C656G limits assumed)
Kind of assay: β-galactosidase activity assay, strain V495Y.
Source text: as §1, §2

For assay [4], the target named is T6, LexA (GSG)2eDHFR / B42 rGR2 (UniProt P06536+P0ABQ4, C656G/F620S).
T6 construct: rat Glucocorticoid Receptor (aa 524-795) with point mutations; expressed in transfected cells; host or cells: S. cerevisiae FY250
T6 sequence (P0ABQ4 1-159): T1 sequence (P0ABQ4 1-159)
T6 sequence (P06536 524-795 F620S/C656G limits assumed): T1 sequence (P06536 524-795 F620S/C656G limits assumed)
Kind of assay: β-galactosidase activity assay, strain V498Y.
Source text: as §1, §2

Assay [5] concerns the target T7, LexA (GSG)2mDHFR / B42 rGR2 (UniProt P00375+P06536, C656G/F620S).
T7 construct: rat Glucocorticoid Receptor (aa 524-795) with point mutations; expressed in transfected cells; host or cells: S. cerevisiae FY250
T7 sequence (P00375 1-187): T2 sequence (P00375 1-187)
T7 sequence (P06536 524-795 F620S/C656G limits assumed): T1 sequence (P06536 524-795 F620S/C656G limits assumed)
The assay is described as follows: β-galactosidase activity assay, strain V502Y.
Source text: as §1, §2

For assay [6], the target named is T8, LexA (GSG)2rGR2 / B42 mDHFR (UniProt P00375+P06536, C656G/F620S).
T8 construct: expressed in transfected cells; host or cells: S. cerevisiae FY250 with pMW106 lacZ reporter
T8 sequence (P06536 524-795 F620S/C656G limits assumed): T1 sequence (P06536 524-795 F620S/C656G limits assumed)
T8 sequence (P00375 1-187): T2 sequence (P00375 1-187)
The assay is described as follows: β-galactosidase activity assay, strain V508Y.
Source text: as §1, §2

The target of a further assay is T9, LexA eDHFR / B42 rGR2 (UniProt P06536+P0ABQ4, C656G/F620S).
T9 construct: rat Glucocorticoid Receptor (aa 524-795) with point mutations; expressed in transfected cells; host or cells: S. cerevisiae FY250
T9 sequence (P0ABQ4 1-159): T1 sequence (P0ABQ4 1-159)
T9 sequence (P06536 524-795 F620S/C656G limits assumed): T1 sequence (P06536 524-795 F620S/C656G limits assumed)
The assay is described as follows: β-galactosidase activity assay, strain V493Y.
Source text: as §1, §2

The target of assay [7] is T10, LexA (GSG)2rGR2 / B42 eDHFR (UniProt P06536+P0ABQ4, C656G/F620S).
T10 construct: expressed in transfected cells; host or cells: S. cerevisiae FY250 with pMW106 lacZ reporter
T10 sequence (P06536 524-795 F620S/C656G limits assumed): T1 sequence (P06536 524-795 F620S/C656G limits assumed)
T10 sequence (P0ABQ4 1-159): T1 sequence (P0ABQ4 1-159)
The assay is described as follows: β-galactosidase activity assay, strain V506Y.
Source text: as §1, §2

As to `C[C@@H]1C[C@H]2C3CCC4=CC(=O)C=C[C@]4(C)[C@@]3(F)[C@@H](O)C[C@]2(C)[C@@]1(O)C(=O)NCCSCc1cccc(CSCC[C@H](NC(=O)c2ccc(N(C)Cc3cnc4nc(N)nc(N)c4n3)cc2)C(=O)O)c1` (stereo partly shown) [DM1], the B-gal activity in assay [1] is given as 4662 β-galactosidase units; at LexA rGR2 / B42 mDHFR it was −7 β-galactosidase units; in assay [2], −1 β-galactosidase units; in [3], 12 β-galactosidase units; on LexA mDHFR / B42 rGR2, 15 β-galactosidase units; in [4], 4735 β-galactosidase units. Moreover, the B-gal activity in assay [5] is given as 21 β-galactosidase units; in [6] it was 0 β-galactosidase units; at LexA eDHFR / B42 rGR2, 5753 β-galactosidase units; in assay [7] it was 519 β-galactosidase units.
